Literature values, collected in paper PMC8284440, “Toward New Transmission-Blocking Combination Therapies: Pharmacokinetics of 10-Amino-Artemisinins and 11-Aza-Artemisinin and Comparison with Dihydroartemisinin and Artemether” (Antimicrobial Agents and Chemotherapy, 2021).
Read-outs that look alike come from different tables or passages of the source.

Key:
P. falciparum W2 [1] = tested on: P. falciparum W2; set-up: method as in ref 1 and 2 (supplement; main text 47, 48); settings: Table S1, ± SEM; ref 1 and 2 (supplement; main text 47, 48); cited from earlier work
murine cerebral malaria = tested on: murine cerebral malaria; set-up: method as in PMID 20691118; settings: prescribed low dose levels; cited from earlier work
W2 ring-stage parasites = tested on: W2 ring-stage parasites; set-up: method as in PMID 25288088; settings: not in a concentration-dependent manner; cited from earlier work
P. falciparum TM91-C235 = tested on: P. falciparum TM91-C235; set-up: method as in ref 5 (supplement; main text 63); settings: CQ and mefloquine resistant; ref 5 (supplement; main text 63); read-out: Antimalarial activities IC50 TM91-C235; cited from earlier work
[2] = tested on: CamWTC580Y, Cam3.IIC580Y and Cam3.IIRev strains; set-up: method as in PMID 25049252; settings: read-out: mean IC50 across Cambodian strains; cited from earlier work
P. falciparum TM-C2B = tested on: P. falciparum TM-C2B; set-up: method as in ref 5 (supplement; main text 63); settings: atovaquone and CQ resistant; ref 5 (supplement; main text 63); read-out: Antimalarial activities IC50 TM-C2B; cited from earlier work
P. falciparum W2 [3] = tested on: P. falciparum W2; set-up: method as in PMID 25049252; settings: read-out: activity against W2; cited from earlier work
nonsevere malaria = tested on: nonsevere malaria; set-up: method as in PMID 18559649, PMID 30902052, doi:10.4103/jpp.JPP_23_20; settings: patients with nonsevere malaria; cited from earlier work
[4] = in vivo; cited from earlier work
[5] = set-up: method as in PMID 16444785, PMID 18559649; settings: female rats, cited from earlier work
[6] = set-up: method as in PMID 16444785; settings: cited from earlier work
P. falciparum NF54 = tested on: P. falciparum NF54; set-up: method as in ref 4 (supplement; main text 62); settings: Table S2, ± SEM; ref 4 (supplement; main text 62); read-out: Antimalarial activities IC50 NF54; cited from earlier work
[7] = tested on: late stage (IV-V) P. falciparum NF54 gametocytes; set-up: method as in ref 4 (supplement; main text 62); settings: Table S4, n = 1; ref 4 (supplement; main text 62); read-out: Late stage IC50 (pLDH 72 + 72 h); cited from earlier work
WI-38 HFLF = tested on: WI-38 HFLF; set-up: method as in ref 4 (supplement; main text 62); settings: Table S2; ref 4 (supplement; main text 62); read-out: Cytotoxicities IC50 WI-38 HFLF; cited from earlier work

## C[C@H]1[C@H](N2CCSCC2)O[C@@H]2O[C@@]3(C)CC[C@H]4[C@H](C)CC[C@@H]1[C@@]24OO3 [Artemiside 5, artemiside]
P. falciparum W2 [1]
  IC50: 1.75 ± 0.27 nM

## C[C@H]1[C@H](N2CCS(=O)(=O)CC2)O[C@@H]2O[C@@]3(C)CC[C@H]4[C@H](C)CC[C@@H]1[C@@]24OO3 [Artemisone 6, artemisone]
P. falciparum W2 [1]
  IC50: 1.6 ± 0.4 nM
Murine cerebral malaria
  Cure of murine cerebral malaria: completely curative
W2 ring-stage parasites
  Induction of quiescence in W2 ring-stage parasites: induce quiescence
P. falciparum TM91-C235
  IC50: 1.1 ± 0.5 nM
[2]
  IC50: 2.4 nM
P. falciparum TM-C2B
  IC50: 1.1 ± 0.4 nM
P. falciparum W2 [3]
  IC50: 1.9 nM
Nonsevere malaria
  Cure in phase IIa trial: curative at one-third the dose level of artesunate
[4]
  artemisone equivalent concentrations at Tmax by bioassay versus LC/MS-MS, fold higher: about 2.3 fold
[5]; single oral dose 3 mg/kg
  Cmax: 0.035 µg/mL
  elimination half-life: 10.8 min
[5]; single oral dose 10 mg/kg
  Cmax: 0.23 µg/mL
  elimination half-life: 22.2 min
[5]; single oral dose 30 mg/kg
  Cmax: 0.85 µg/mL
  elimination half-life: 32.4 min
[6]
  Neurotoxicity: nonneurotoxic

## CO[C@H]1O[C@@H]2O[C@@]3(C)CC[C@H]4[C@H](C)CC[C@@H]([C@H]1C)[C@@]24OO3 [Artemether 3, artemether]
P. falciparum NF54
  IC50: 1.86 ± 0.17 nM

## C[C@H]1[C@H](N2C=CS(=O)(=O)CC2)O[C@@H]2O[C@@]3(C)CC[C@H]4[C@H](C)CC[C@@H]1[C@@]24OO3 [M1 12]
W2 ring-stage parasites
  Induction of quiescence in W2 ring-stage parasites: induce quiescence
P. falciparum TM91-C235
  IC50: 5 ± 0.6 nM
P. falciparum TM-C2B
  IC50: 8.6 ± 8.2 nM

## C[C@H]1[C@@H](O)O[C@@H]2O[C@@]3(C)CC[C@H]4[C@H](C)CC[C@@H]1[C@@]24OO3 [DHA 2, dihydroartemisinin]
P. falciparum W2 [1]
  IC50: 1.74 ± 0.22 nM
Murine cerebral malaria
  Cure of murine cerebral malaria: no cure
P. falciparum TM91-C235
  IC50: 2.3 ± 0.7 nM
[2]
  IC50: 11.2 nM
P. falciparum TM-C2B
  IC50: 2 ± 0.7 nM
P. falciparum W2 [3]
  IC50: 5.2 nM
P. falciparum NF54
  IC50: 0.57 ± 0.01 nM

## C[C@H]1[C@H](N2CCN(C(=O)Nc3ccc(F)cc3)CC2)O[C@@H]2O[C@@]3(C)CC[C@H]4[C@H](C)CC[C@@H]1[C@@]24OO3 [Arylurea 10]
P. falciparum W2 [1]
  IC50: 1.16 ± 0.17 nM

## C[C@@H]1CC[C@H]2[C@@H](C)C(=O)N[C@@H]3O[C@@]4(C)CC[C@@H]1[C@]32OO4 [11-Aza-artemisinin 11, 11-aza-artemisinin]
[7]
  IC50: 622 nM
P. falciparum NF54
  IC50: 10.5 ± 1.36 nM
WI-38 HFLF
  IC50: > 100000 nM

## C[C@H]1[C@H](NS(N)(=O)=O)O[C@@H]2O[C@@]3(C)CC[C@H]4[C@H](C)CC[C@@H]1[C@@]24OO3 [Sulfamide 7]
P. falciparum W2 [1]
  IC50: 2.04 ± 0.11 nM
